# Experimental data published in the METLIN SMRT retention time set (Domingo-Almenara et al. 2019).
# Assay: gradient 5% acetonitrile 3 min, to 50% in 2 min, to 85% in 15 min, held 3 min, 100 µL/min
# Conditions: column: Zorbax Extend-C18 2.1 x 50 mm; eluents: water / acetonitrile, 0.1% formic acid
# How it was run: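 Over 3 months, pure standards in mixtures of ~100 molecules were run by HPLC coupled to a quadrupole time-of-flight mass spectrometer in positive and negative ionization mode. The column was a Zorbax Extend-C18 (2.1 × 50 mm, 1.8 μm) at 100 μL/min, eluted with water and acetonitrile each holding 0.1% formic acid, with 40 μL dead and 900 μL dwell volumes. Retention time was determined from adduct peaks chosen by software and checked manually.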
row,RP-LC retention time [s],Compound
1,1120,Cc1sc(-c2cc(C(F)(F)F)on2)cc1S(=O)(=O)Nc1ccc(F)cc1
2,715,Cc1oc(-c2ccc(C(=O)NCCCN3CCCC3)cc2)nc1COc1ccccc1
3,720,Cc1ccc(NC(=O)NCC(c2cccnc2)c2cn(C)c3ccccc23)c(C)c1 (configuration not stated)
4,776,COc1cccc(NC(=O)CN2C(=O)c3ccccc3Sc3ncccc32)c1
5,729,COc1ccc(NC(=O)C2CCN(C(=O)C3Sc4ccccc4NC3=O)CC2)cc1 (configuration not stated)
6,679,O=C(Nc1ccc(NC(=O)N2CCC(C(=O)NCC3CC3)CC2)cc1)NC1CCCC1
7,1060,CCOc1ccc(C(=O)N2CCc3cc(-c4csc(C)n4)ccc32)cc1
8,1060,CCOc1ccc(C(=O)NC2(c3nc(C(C)C)no3)CCCCC2)cc1OCC
9,728,Cc1nn2c(CNC(=O)c3ccco3)c(-c3ccccc3)nc2s1
10,837,O=C(C1CC(=O)N(c2n[nH]c3cccc(F)c23)C1)N1CCN(c2cccc(Cl)c2)CC1 (configuration not stated)
11,723,O=C(O)C1c2ccccc2CC(=O)N1Cc1ccccc1 (configuration not stated)
12,921,Cc1cc(-c2nnc(-c3ccccc3)o2)c(C)n1CC(=O)NC(C)c1ccccc1 (configuration not stated)
13,790,Cc1cccc(C2=NC3(CCN(C(=O)Nc4ccc5c(c4)OCO5)CC3)NC2=O)c1
14,683,CCOC(=O)CNC(=O)N1CCN(c2ccc(=O)n(-c3ccc(C)cc3)n2)CC1
15,806,O=C(Nc1cccc(F)c1)C1CCCN(c2nnc3ccc(Cl)cn23)C1 (configuration not stated)
16,652,O=C(c1ccc(F)c(F)c1)N1CCc2[nH]cnc2C1c1ccccc1 (configuration not stated)
17,589,O=C(NCC1CCCO1)c1c[nH]c2ncccc12 (configuration not stated)
18,994,CCCn1c(=O)c(N2CCN(C(=O)C3CCC3)CC2)nc2ccccc21
19,682,CCOc1ccc(-c2nnc(SCC(N)=O)o2)cc1

row,RP-LC retention time [s],Compound
1,958,c1ccc(-c2noc(-c3nc(-c4ccccn4)no3)n2)cc1
2,774,COc1ccc(CCNC(=O)c2ccc3c(c2)N(C)C(=O)C2CCCCN32)cc1OC (configuration not stated)
3,694,CC(=O)Nc1ccc(NC(=O)Cn2cccc(-c3nc(-c4ccccc4)no3)c2=O)cc1
4,585,COc1ccc(CNC(=O)CN2CCc3[nH]c4cc5c(cc4c(=O)c3C2)OCCO5)cc1OC
5,642,COc1ccc(-c2noc(-c3ccc(NCCCN4CCCC4)nn3)n2)cc1
6,566,CCn1ccc(C(=O)NC)n1
7,790,COCc1nnc(C(=O)Nc2ccc(C(=O)NCCc3c[nH]c4ccc(OC)cc34)cc2)s1
8,1130,CCc1ccccc1S(=O)(=O)N1CCC2(CC1)C(=O)N(CC)c1ccccc12
9,657,CCOC(=O)c1c(C)[nH]c(C(=O)N2CCC(CC(=O)NCC3CCCO3)CC2)c1C (configuration not stated)
10,790,Cc1ccc(C)c(NC(=O)C2CCN(S(=O)(=O)c3cc(C(=O)N(C)C)cs3)CC2)c1
11,902,O=C(Cn1c(=O)cc(-c2nc(C3CC3)no2)c2ccccc21)NCc1ccccc1F
12,964,CCOC(=O)c1nc(Nc2cc(Cl)c(OC)cc2OC)c2ccccc2n1
13,1080,CCOC(=O)c1nc(NCCc2ccc(C)cc2)c2c(CC)noc2n1
14,1080,CCOc1ccc(-c2nc(CNC(=O)Nc3ccccc3OCC)c(C)o2)cc1
15,720,CCc1noc(-c2cnc3nc(C)ccc3c2Nc2ccc3c(c2)OCO3)n1
16,628,Cc1cc2ccccc2n2c(SCC(=O)NCC3CCCO3)nnc12 (configuration not stated)
17,649,COc1ccc(NC(=O)Nc2c(-c3ccc(F)cc3)nc3ccccn23)cc1
18,550,CCn1nnc2c(N3CCN(CC(=O)NC4CCCC4)CC3)ncnc21
